{
  "source": "patent US5036059A",
  "about": "“1,4-Dihydropyridine-3-carboxylate derivatives” (Nippon Shinyaku Company, Limited, priority 1984, dated 1991)",
  "key": {"[1]": {"system": "spontaneously hypertensive rats", "assay": "Hypotensive action in spontaneously hypertensive rats, systolic arterial blood pressure by tail plethysmography, oral", "type": "in vivo", "experimental": "(§1) Hypotensive action of diltiazem (which is a known hypotensive drug) measured by the same method at the doses of 3, 10 and 30 mg/kg were 0, 11.2 and 33.0%, respectively. Hypotensive action of the compound of Example 4 which is one of the most representative compounds of this invention was tested using spontaneously hypertensive rats and was compared with those of Nifedipine and Diltiazem hydrochloride. The method applied was that the drugs were orally given to the rats of which systolic arterial blood pressure were higher than 180 mmHg when it was measured plethysmographically using tail arteries. (Table 3)\nDoses in mg/kg (p.o.) are as follows: *0.3 (1.0); **1.0 (3.0); ***30."}, "[2]": {"system": "rats (with normal blood pressure)", "assay": "Hypotensive action, mean blood pressure of femoral artery in unanesthetized normotensive rats, oral", "type": "in vivo", "conditions": "Rattus norvegicus, read-out: % Decreases in Mean Blood Pressure [at peak effect]", "experimental": "Blood pressure of femoral artery of rats (with normal blood pressure) under unanesthetized condition was measured directly using a pressure tranducer.\nThe present invention compounds were given orally at doses of 1, 3 and 10 mg/kg, and changes in blood pressure were continuously recorded. Percent decreases of mean blood pressure at the peak effect were calculated. The maximum changes in mean blood pressure (%) were shown as \"hypotensive action\" (Table 2).\nas §1"}, "[3]": {"conditions": "0.5 hr after administration, 1.0 mg/kg p.o."}, "[4]": {"conditions": "1 hr after administration, 1.0 mg/kg p.o."}, "[5]": {"conditions": "2 hr after administration, 1.0 mg/kg p.o."}, "[6]": {"conditions": "3 hr after administration, 1.0 mg/kg p.o."}, "[7]": {"conditions": "5 hr after administration, 1.0 mg/kg p.o."}, "[8]": {"conditions": "8 hr after administration, 1.0 mg/kg p.o."}, "[9]": {"conditions": "12 hr after administration, 1.0 mg/kg p.o."}, "[10]": {"conditions": "before administration, 1.0 mg/kg p.o."}},
  "data": [
    {"smiles": "COC(=O)C1=C(C)NC(C)=C(C(=O)OC)C1c1ccccc1[N+](=O)[O-]", "note": "[Nifedipine, dimethyl 2,6-dimethyl-4-(2-nitrophenyl)-1,4-dihydropyridine-3,5-dicarboxylate]", "values": [
      {"measurement": "systolic arterial blood pressure", "setting": "[1]; [3]", "value": "139.3 ± 6.9"},
      {"measurement": "systolic arterial blood pressure", "setting": "[1]; 0.5 hr after administration, 3.0 mg/kg p.o.", "value": "112.8 ± 6.0"},
      {"measurement": "systolic arterial blood pressure", "setting": "[1]; [4]", "value": "161.3 ± 4.1"},
      {"measurement": "systolic arterial blood pressure", "setting": "[1]; 1 hr after administration, 3.0 mg/kg p.o.", "value": "125.8 ± 4.4"},
      {"measurement": "systolic arterial blood pressure", "setting": "[1]; [5]", "value": "183.5 ± 10.0"},
      {"measurement": "systolic arterial blood pressure", "setting": "[1]; 2 hr after administration, 3.0 mg/kg p.o.", "value": "148.7 ± 9.9"},
      {"measurement": "systolic arterial blood pressure", "setting": "[1]; [6]", "value": "188.3 ± 5.8"},
      {"measurement": "systolic arterial blood pressure", "setting": "[1]; 3 hr after administration, 3.0 mg/kg p.o.", "value": "176.8 ± 2.6"},
      {"measurement": "systolic arterial blood pressure", "setting": "[1]; [7]", "value": "187.2 ± 5.3"},
      {"measurement": "systolic arterial blood pressure", "setting": "[1]; 5 hr after administration, 3.0 mg/kg p.o.", "value": "183.8 ± 6.0"},
      {"measurement": "systolic arterial blood pressure", "setting": "[1]; [8]", "value": "190.9 ± 4.8"},
      {"measurement": "systolic arterial blood pressure", "setting": "[1]; 8 hr after administration, 3.0 mg/kg p.o.", "value": "188.5 ± 2.9"},
      {"measurement": "systolic arterial blood pressure", "setting": "[1]; [9]", "value": "190.3 ± 5.5"},
      {"measurement": "systolic arterial blood pressure", "setting": "[1]; 12 hr after administration, 3.0 mg/kg p.o.", "value": "190.0 ± 7.0"},
      {"measurement": "systolic arterial blood pressure", "setting": "[1]; [10]", "value": "194.8 ± 2.1"},
      {"measurement": "systolic arterial blood pressure", "setting": "[1]; before administration, 3.0 mg/kg p.o.", "value": "189.0 ± 5.1"}
    ]},
    {"smiles": "COC(=O)C1=C(C)NC(C)=C(P2(=O)OCCCO2)C1c1ccccc1[N+](=O)[O-]", "note": "(stereo not shown) [Example 4, Methyl 2,6-dimethyl-4-(2-nitrophenyl)-5-(2-oxo-1,3,2-dioxaphosphorinan-2-yl)-1,4-dihydropyridine-3-carboxylate]", "values": [
      {"measurement": "systolic arterial blood pressure", "setting": "[1]; 0.5 hr after administration, 0.3 mg/kg p.o.", "value": "126.0 ± 3.9"},
      {"measurement": "systolic arterial blood pressure", "setting": "[1]; [3]", "value": "87.7 ± 4.9"},
      {"measurement": "systolic arterial blood pressure", "setting": "[1]; 1 hr after administration, 0.3 mg/kg p.o.", "value": "124.0 ± 3.3"},
      {"measurement": "systolic arterial blood pressure", "setting": "[1]; [4]", "value": "90.2 ± 6.3"},
      {"measurement": "systolic arterial blood pressure", "setting": "[1]; 2 hr after administration, 0.3 mg/kg p.o.", "value": "134.2 ± 4.3"},
      {"measurement": "systolic arterial blood pressure", "setting": "[1]; [5]", "value": "103.2 ± 7.3"},
      {"measurement": "systolic arterial blood pressure", "setting": "[1]; 3 hr after administration, 0.3 mg/kg p.o.", "value": "152.5 ± 4.0"},
      {"measurement": "systolic arterial blood pressure", "setting": "[1]; [6]", "value": "133.3 ± 5.3"},
      {"measurement": "systolic arterial blood pressure", "setting": "[1]; 5 hr after administration, 0.3 mg/kg p.o.", "value": "156.8 ± 8.3"},
      {"measurement": "systolic arterial blood pressure", "setting": "[1]; [7]", "value": "150.7 ± 7.7"},
      {"measurement": "systolic arterial blood pressure", "setting": "[1]; 8 hr after administration, 0.3 mg/kg p.o.", "value": "158.3 ± 7.2"},
      {"measurement": "systolic arterial blood pressure", "setting": "[1]; [8]", "value": "152.8 ± 6.5"},
      {"measurement": "systolic arterial blood pressure", "setting": "[1]; 12 hr after administration, 0.3 mg/kg p.o.", "value": "170.7 ± 5.4"},
      {"measurement": "systolic arterial blood pressure", "setting": "[1]; [9]", "value": "165.3 ± 6.1"},
      {"measurement": "systolic arterial blood pressure", "setting": "[1]; 24 hr after administration, 0.3 mg/kg p.o.", "value": "195.3 ± 5.9"},
      {"measurement": "systolic arterial blood pressure", "setting": "[1]; 24 hr after administration, 1.0 mg/kg p.o.", "value": "187.7 ± 7.5"},
      {"measurement": "systolic arterial blood pressure", "setting": "[1]; before administration, 0.3 mg/kg p.o.", "value": "185.2 ± 5.4"},
      {"measurement": "systolic arterial blood pressure", "setting": "[1]; [10]", "value": "193.0 ± 6.5"},
      {"measurement": "inhibition in vivo at 1 mg/kg", "setting": "[2]; 1 mg/kg oral", "value": 42.6, "unit": "%"},
      {"measurement": "inhibition in vivo at 3 mg/kg", "setting": "[2]; 3 mg/kg oral", "value": 39, "unit": "%"},
      {"measurement": "inhibition in vivo at 10 mg/kg", "setting": "[2]; 10 mg/kg oral", "value": 41.9, "unit": "%"}
    ]}
  ]
}
